Laboratory results taken from patent US11180484B2, “Pyrazole derivatives as plasma kallikrein inhibitors” (KALVISTA PHARMACEUTICALS LIMITED, priority 2016, dated 2021).

Assays:
Human plasma kallikrein [1] = target: T1, Human plasma kallikrein (Homo sapiens (Human), UniProt P03952); experiment: Determination of the IC50 for plasma kallikrein; format: biochemical; settings: 25° C., substrate H-DPro-Phe-Arg-AFC; read-out: IC50 (human PKal)
Description: (§1) Human plasma kallikrein (Protogen) was incubated at 25° C. with the fluorogenic substrate H-DPro-Phe-Arg-AFC and various concentrations of the test compound. Residual enzyme activity (initial rate of reaction) was determined by measuring the change in […] at 410 nm and the IC50 value for the test compound was determined.

[2] = In vitro permeability, Caco-2 model for oral absorption; format: in vitro ADME; settings: human, apical to basolateral, 50 μM test compound, 37° C.
Description: In vitro permeability was determined using the Caco-2 model for oral absorption. The methodology was adapted from standard published methods (Wang Z, Hop C. E., Leung K. H. and Pang J. (2000) J Mass Spectrom 35(1); 71-76). The Caco-2 monolayers were established in a Biocoat™ HTS fibrillar collagen 24 well multiwell insert system (1.0 μm, PET membrane, Corning 354803) in which 200,000 cells were seeded into each insert and maintained over 3 days before being utilised in the permeability assay. For the assay, 50 μM test compound is added to the apical side of the inserts and incubated for 1 hour at 37° C. on a shaking platform (120 rpm). Apical to basolateral transport was determined by measuring the test article in both compartments by LCMS following the 1 hour incubation. The integrity of the Caco-2 monolayers was confirmed by two methods, (i) comparison of pre- and post-experiment transepithelial electrical resistance (TEER) and, (ii) assessment of Lucifer Yellow flux.

Human KLK1 = Human KLK1 (Homo sapiens (Human), UniProt P06870); experiment: Determination of the IC50 for KLK1; format: biochemical; settings: 25° C., substrate H-DVal-Leu-Arg-AFC
Chain of Human KLK1 (P06870 25-262): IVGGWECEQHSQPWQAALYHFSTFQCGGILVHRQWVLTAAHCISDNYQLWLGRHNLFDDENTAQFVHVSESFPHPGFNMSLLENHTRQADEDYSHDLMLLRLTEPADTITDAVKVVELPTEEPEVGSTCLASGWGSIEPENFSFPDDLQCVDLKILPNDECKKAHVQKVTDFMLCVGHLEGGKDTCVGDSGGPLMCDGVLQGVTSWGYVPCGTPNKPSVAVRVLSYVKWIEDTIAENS
Description: as §1, with “KLK1 (Callbiochem)” for “plasma kallikrein (Protogen)”, “H-DVal-Leu-Arg-AFC” for “H-DPro-Phe-Arg-AFC”

[3] = Intrinsic clearance in rat liver microsomes; format: in vitro ADME; settings: rat liver microsomes 0.5 mg/mL, 5 μM test compound, 37° C.; read-out: rat liver microsome (Clint μL/min/mg protein)
Description: (§2) Rat or human liver microsomes (0.5 mg/mL; Corning) were incubated with 5 μM test compound at 37° C. on a shaking platform (150 rpm). Samples were taken at 0, 6, 12, 18, 24 and 60 min and test compound concentrations were determined by LCMS against a calibration curve.

Human Factor XIIa = Human Factor XIIa (Homo sapiens (Human), UniProt P00748); experiment: Factor XIIa inhibitory activity in vitro; format: biochemical; settings: 25° C., substrate H-DPro-Phe-Arg-AFC; read-out: IC50 (human FXIIa)
Chain of Human Factor XIIa (P00748 373-615): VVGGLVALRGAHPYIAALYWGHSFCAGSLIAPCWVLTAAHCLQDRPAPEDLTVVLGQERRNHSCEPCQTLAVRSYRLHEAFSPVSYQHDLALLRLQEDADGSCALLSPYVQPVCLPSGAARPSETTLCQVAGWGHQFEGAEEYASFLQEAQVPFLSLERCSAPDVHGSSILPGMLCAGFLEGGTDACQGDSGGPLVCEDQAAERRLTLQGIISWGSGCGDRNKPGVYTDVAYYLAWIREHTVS
Description: as §1, with “Factor XIIa (Enzyme Research Laboratories)” for “plasma kallikrein (Protogen)”

Human FXIa = Human FXIa (Homo sapiens (Human), UniProt P03951); experiment: Determination of the % inhibition / IC50 for FXIa; format: biochemical; settings: for IC50: 25° C., substrate Z-Gly-Pro-Arg-AFC
Chain of Human FXIa (P03951 388-625): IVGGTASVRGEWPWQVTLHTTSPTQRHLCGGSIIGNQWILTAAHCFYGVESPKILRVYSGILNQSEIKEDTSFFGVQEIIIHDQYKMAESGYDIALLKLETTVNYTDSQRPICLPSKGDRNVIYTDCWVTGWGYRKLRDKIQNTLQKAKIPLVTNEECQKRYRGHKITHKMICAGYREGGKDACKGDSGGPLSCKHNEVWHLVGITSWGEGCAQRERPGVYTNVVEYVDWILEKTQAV
Chain of Human FXIa (P03951 19-387): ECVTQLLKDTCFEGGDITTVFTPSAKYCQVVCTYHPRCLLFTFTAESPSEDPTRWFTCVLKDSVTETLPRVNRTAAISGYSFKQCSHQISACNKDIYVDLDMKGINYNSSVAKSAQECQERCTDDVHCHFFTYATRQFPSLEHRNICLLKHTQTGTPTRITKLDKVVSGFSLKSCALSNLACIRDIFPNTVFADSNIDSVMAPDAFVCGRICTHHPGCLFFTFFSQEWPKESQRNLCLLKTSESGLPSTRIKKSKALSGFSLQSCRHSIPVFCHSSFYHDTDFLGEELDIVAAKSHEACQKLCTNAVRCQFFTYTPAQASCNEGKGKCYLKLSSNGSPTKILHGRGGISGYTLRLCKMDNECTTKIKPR
Description: FXIa inhibitory activity in vitro was determined using standard published methods (see e.g. Johansen et al., Int. J. Tiss. Reac. 1986, 8, 185; Shori et al., Biochem. Pharmacol., 1992, 43, 1209; Sturzebecher et al., Biol. Chem. Hoppe-Seyler, 1992, 373, 1025). […]

[4] = Predicted plasma clearance (Clp), well-stirred model, human; format: in vitro ADME; settings: percentage of hepatic blood flow
Description: (§3) The predicted plasma clearance (Clp) is calculated using the well-stirred model (Rowland M, Benet L Z, and Graham G G. Clearance concepts in pharmacokinetics. J Pharmacokinet Biopharm. (1973) 1:123-136.), one of several models that can be used to extrapolate the in vitro data. The model assumes instantaneous and complete mixing of drug within the liver and is a function of intrinsic clearance, hepatic blood flow and free fraction of drug in the blood. The predicted plasma clearance in mL/min/kg is presented as a percentage of hepatic blood flow (LBF).

[5] = Plasma protein binding (PPB), rapid equilibrium dialysis, human plasma; format: in vitro ADME; settings: 5 μM test compound, dialysis 5 hrs at 37° C.
Description: The fraction unbound in plasma was determined using ThermoScientific™ Pierce™ Rapid Equilibrium Dialysis Technology (Single-Use plate with inserts, 8K MWCO). […] Reference samples from the non-dialysed plasma were taken before the incubation to enable an assessment of recovery. Test compound concentrations were determined in plasma and buffer compartments by LCMS against a calibration curve. […] Results are presented as percent plasma protein bound (% PPB).

[6] = Intrinsic clearance in human liver microsomes; format: in vitro ADME; settings: human liver microsomes 0.5 mg/mL, 5 μM test compound, 37° C.; read-out: Human liver microsome (Clint μL/min/mg protein)
Description: as §2

[7] = Plasma protein binding (PPB), rapid equilibrium dialysis, rat plasma; format: in vitro ADME; settings: 5 μM test compound, dialysis 5 hrs at 37° C.
Description: The fraction unbound in plasma was determined using ThermoScientific™ Pierce™ Rapid Equilibrium Dialysis Technology (Single-Use plate with inserts, 8K MWCO). 5 μM test compound was spiked into human or rat plasma (300 μL) and dialysed against 146.5 mM phosphate buffer (500 μL) for 5 hrs at 37° C., shaking at 1200 rpm. Reference samples from the non-dialysed plasma were taken before the incubation to enable an assessment of recovery. Test compound concentrations were determined in plasma and buffer compartments by LCMS against a calibration curve. The fraction unbound in plasma was determined using standard methodology (Waters N J et al (2008) J Pharm Sci 97(10); 4586-95). Results are presented as percent plasma protein bound (% PPB).

[8] = Predicted plasma clearance (Clp), well-stirred model, rat; format: in vitro ADME; settings: percentage of hepatic blood flow
Description: as §3

Human plasma kallikrein [9] = target: T1, Human plasma kallikrein; experiment: Determination of the Ki for plasma kallikrein (mixed-model inhibition); format: biochemical; settings: for Ki: human plasma kallikrein, mixed-model inhibition equation; for Alpha: parameter of the mixed-model equation indicating mechanism of inhibition
Description: Plasma kallikrein inhibitory activity in vitro was determined using standard published methods (e.g. Johansen et al., Int. J. Tiss. Reac. 1986, 8, 185; Shori et al., Biochem. Pharmacol., 1992, 43, 1209; Sturzebecher et al., Biol. Chem. Hoppe-Seyler, 1992, 373, 1025). […]. Residual enzyme activity (initial rate of reaction) was determined by measuring the change in fluorescence at 410 nm. The Ki value for the test compound was determined using the mixed-model inhibition equation (based on Equation 3.2 in: RA Copeland, Evaluation of Enzyme Inhibitors in Drug Discovery, Wiley 2005) in GraphPad Prism. The mixed model equation includes competitive, uncompetitive and noncompetitive inhibition as special cases and the parameter of Alpha to indicate mechanism of inhibition.

T1 sequence (P03952 391-638): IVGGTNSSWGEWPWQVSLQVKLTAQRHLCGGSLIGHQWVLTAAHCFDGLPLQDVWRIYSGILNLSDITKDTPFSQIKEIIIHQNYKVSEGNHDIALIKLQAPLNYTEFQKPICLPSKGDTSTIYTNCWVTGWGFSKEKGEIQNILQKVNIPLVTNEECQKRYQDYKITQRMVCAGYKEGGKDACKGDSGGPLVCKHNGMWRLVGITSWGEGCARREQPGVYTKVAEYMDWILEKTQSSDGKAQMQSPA
T1 sequence (P03952 20-390): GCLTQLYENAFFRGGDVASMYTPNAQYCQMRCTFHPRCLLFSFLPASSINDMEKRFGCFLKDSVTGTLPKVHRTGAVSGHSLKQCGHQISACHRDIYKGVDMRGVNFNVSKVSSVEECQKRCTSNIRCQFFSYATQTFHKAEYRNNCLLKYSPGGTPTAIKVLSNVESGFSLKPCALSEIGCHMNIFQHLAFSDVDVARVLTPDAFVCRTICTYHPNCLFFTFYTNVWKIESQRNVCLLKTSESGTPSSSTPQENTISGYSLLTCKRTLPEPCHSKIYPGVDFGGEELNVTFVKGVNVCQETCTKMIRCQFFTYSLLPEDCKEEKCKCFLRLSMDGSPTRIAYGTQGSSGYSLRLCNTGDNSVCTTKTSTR

| SMILES | IC50 (Human plasma kallikrein [1]) [nM] | Papp at 1 h, 50 μM [2] [×10⁻⁶ cm/s] | IC50 (Human KLK1) [nM] | microsomal CLint at 5 μM [3] [µL/min/mg] | IC50 (Human Factor XIIa) [nM] | IC50 (Human FXIa) [nM] | Predicted in vivo human Clp (% LBF) [4] [% LBF] | fraction unbound at 5 h, 5 μM [5] | microsomal CLint at 5 μM [6] [µL/min/mg] | fraction unbound at 5 h, 5 μM [7] | Predicted in vivo rat Clp (% LBF) [8] [% LBF] | Ki (Human plasma kallikrein [9]) [nM] | Alpha (Human plasma kallikrein [9]) | inhibition at 40 µM (Human FXIa; 40 μM test compound, read-out: % Inhibition @ 40 μM (human FXIa)) [%] |
| --- | --- | --- | --- | --- | --- | --- | --- | --- | --- | --- | --- | --- | --- | --- |
| COc1ccnc(CNC(=O)c2cn(Cc3ccc(Cn4ccccc4=O)cc3)nc2N)c1F [Example 5, 3-amino-N-[(3-fluoro-4-methoxypyridin-2-yl)methyl]-1-({4-[(2-oxopyridin-1-yl)methyl]phenyl}methyl)pyrazole-4-carboxamide] | 2 | 2 | > 40000 | 6 | > 40000 | > 40000 | 3 | 0.23 | 3 | 0.36 | 5 |  |  |  |
| COCc1nn(Cc2ccc(Cn3cc(C)cn3)cc2)cc1C(=O)NCc1c(-n2cnnn2)ccc(OC)c1F [Example 60, N-{[2-fluoro-3-methoxy-6-(1,2,3,4-tetrazol-1-yl)phenyl]methyl}-3-(methoxymethyl)-1-({4-[(4-methylpyrazol-1-yl)methyl]phenyl}methyl)pyrazole-4-carboxamide] | 0.9 | 25 | > 40000 | 114 | > 40000 | 4700 | 35 | 0.09 | 90 | 0.03 | 12 | 0.3 | 1.6 | 90 |
| COCc1nn(Cc2ccc(Cn3cc(C)cn3)cc2)cc1C(=O)NCc1cc(OC)ccc1-n1cnnn1 [Example 61, N-{[5-methoxy-2-(1,2,3,4-tetrazol-1-yl)phenyl]methyl}-3-(methoxymethyl)-1-({4-[(4-methylpyrazol-1-yl)methyl]phenyl}methyl)pyrazole-4-carboxamide] | 1.7 | 22 | > 4000 | 132 | > 4000 | > 40000 | 4 | 0.08 | 55 | 0.04 | 15 |  |  |  |
| O=C(NCc1c(F)cccc1-n1cnnn1)c1cn(Cc2ccc(Cn3ccccc3=O)cc2)nc1C(F)(F)F [Example 64, N-{[2-fluoro-6-(1,2,3,4-tetrazol-1-yl)phenyl]methyl}-1-({4-[(2-oxopyridin-1-yl)methyl]phenyl}methyl)-3-(trifluoromethyl)pyrazole-4-carboxamide] | 0.6 | 6 | > 4000 | 94 | > 4000 | > 40000 | 19 | 0.08 | 35 | 0.09 | 33 |  |  |  |
| COCc1nn(Cc2cnc(N3CCCC3)nc2)cc1C(=O)NCc1cc(OC)ccc1-n1cnnn1 [Example 80, N-{[5-methoxy-2-(1,2,3,4-tetrazol-1-yl)phenyl]methyl}-3-(methoxymethyl)-1-{[2-(pyrrolidin-1-yl)pyrimidin-5-yl]methyl}pyrazole-4-carboxamide] | 10.6 | 23 | > 4000 | 54 | > 4000 | 779 | 4 | 0.08 | 14 | 0.04 | 6 | 2.4 | 14.8 |  |
| COc1ccc(-n2cnnn2)c(CNC(=O)c2cn(Cc3ccc(N4CCCC4)nc3)nc2C(F)(F)F)c1F [Example 83, N-{[2-fluoro-3-methoxy-6-(1,2,3,4-tetrazol-1-yl)phenyl]methyl}-1-{[6-(pyrrolidin-1-yl)pyridin-3-yl]methyl}-3-(trifluoromethyl)pyrazole-4-carboxamide] | 0.3 | 23 | > 40000 |  | > 40000 | 230 |  |  |  |  |  | 0.53 | 2.24 |  |
| COCc1nn(Cc2cnc(N3CCC(F)(F)C3)nc2)cc1C(=O)NCc1cc(OC)ccc1-n1cnnn1 [Example 88, 1-{[2-(3,3-difluoropyrrolidin-1-yl)pyrimidin-5-yl]methyl}-N-{[5-methoxy-2-(1,2,3,4-tetrazol-1-yl)phenyl]methyl}-3-(methoxymethyl)pyrazole-4-carboxamide] | 8.3 |  | > 40000 |  | > 40000 | 4880 |  |  |  |  |  | 2.9 |  |  |
| COc1cccc(CNC(=O)c2cn(Cc3ccc(Cn4ccccc4=O)cc3)nc2N)c1F [Reference Example B, 3-Amino-1-[4-(2-oxo-2H-pyridin-1-ylmethyl)-benzyl]-1H-pyrazole-4-carboxylic acid 2-fluoro-3-methoxy-benzylamide, reference compound] |  |  | > 10000 |  | > 40000 | > 40000 |  |  |  |  |  | 6.7 | 48 |  |
